Measurements as given in patent publication US7517849B1, “Inhibition of ABC transporters by transmembrane domain analogs” (priority 1999, dated 2009).
Where two headings read alike, the source gives them in different places. Blank lines part the entries; values can stand above or below the molecule they belong to. Where no end group is shown, it is not given here.

Experiments:
[1] = system: Human colon cancer cells HCT15; assay: Sensitisation of HCT15 cells to adriamycin, sulforhodamine B toxicity assay; type: cell-based; conditions: HCT-15, 96 h, four days, without analog
human P-gp = target: T1, human P-gp (Homo sapiens, UniProt P08183); assay: Fluorogenic substrate (rhodamine 123) accumulation/efflux assay by FACS in P-gp-expressing KB 8-5 cells; type: cell-based
T1 construct: P-gp-expressing KB 8-5 cells were trypsinized; endogenous in cells; host or cells: KB 8-5 cells
T1 sequence (P08183 whole entry): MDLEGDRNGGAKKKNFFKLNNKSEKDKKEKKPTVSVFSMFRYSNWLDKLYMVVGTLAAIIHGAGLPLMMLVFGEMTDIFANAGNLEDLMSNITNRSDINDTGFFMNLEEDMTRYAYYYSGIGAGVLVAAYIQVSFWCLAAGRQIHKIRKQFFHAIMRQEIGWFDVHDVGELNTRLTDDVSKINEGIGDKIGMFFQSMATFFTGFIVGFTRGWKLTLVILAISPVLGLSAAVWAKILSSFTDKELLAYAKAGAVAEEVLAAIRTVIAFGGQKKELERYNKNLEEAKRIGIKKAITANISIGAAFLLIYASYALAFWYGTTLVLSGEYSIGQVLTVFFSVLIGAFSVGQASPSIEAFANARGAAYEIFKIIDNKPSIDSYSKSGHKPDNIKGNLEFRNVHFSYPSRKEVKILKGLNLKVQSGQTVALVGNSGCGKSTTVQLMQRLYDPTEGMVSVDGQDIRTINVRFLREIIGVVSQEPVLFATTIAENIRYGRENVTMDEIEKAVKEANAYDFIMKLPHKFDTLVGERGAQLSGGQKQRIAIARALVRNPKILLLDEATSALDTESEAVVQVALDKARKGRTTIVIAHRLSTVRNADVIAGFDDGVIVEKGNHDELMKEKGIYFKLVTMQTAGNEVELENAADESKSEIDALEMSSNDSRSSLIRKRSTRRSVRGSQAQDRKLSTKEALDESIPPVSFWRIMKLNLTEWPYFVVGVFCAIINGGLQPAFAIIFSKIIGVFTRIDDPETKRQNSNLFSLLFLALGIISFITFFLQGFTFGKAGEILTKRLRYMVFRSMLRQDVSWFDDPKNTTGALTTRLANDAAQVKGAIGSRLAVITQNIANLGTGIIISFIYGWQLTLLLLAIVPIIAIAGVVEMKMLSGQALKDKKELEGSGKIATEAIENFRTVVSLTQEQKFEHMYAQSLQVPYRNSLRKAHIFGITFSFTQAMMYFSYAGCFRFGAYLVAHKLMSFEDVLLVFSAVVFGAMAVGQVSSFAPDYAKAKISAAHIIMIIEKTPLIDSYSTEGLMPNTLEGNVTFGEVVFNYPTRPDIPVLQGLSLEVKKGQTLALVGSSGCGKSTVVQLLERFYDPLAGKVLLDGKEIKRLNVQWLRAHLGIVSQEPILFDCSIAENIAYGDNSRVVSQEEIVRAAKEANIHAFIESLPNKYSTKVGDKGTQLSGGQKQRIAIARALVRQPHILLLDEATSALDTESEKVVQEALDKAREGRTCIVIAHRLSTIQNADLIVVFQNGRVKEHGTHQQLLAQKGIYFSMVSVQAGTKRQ
Description: The activity of the antagonists was tested in KB 8-5 cells which express human P-gp (described in Hrycyna et al.; Biochemistry 37:13660-73 (1998)). Analyses of P-gp transport activity were conducted by fluorogenic substrate accumulation assays utilizing fluorescence activated cell sorting (FACS) analysis, as described in Dey, S. et al., Biochemistry 38:6630-9 (1999). […] In initial screens, […] stock solutions of TM peptides in DMSO were diluted in medium to give 10-50 μM solutions. Active compounds were then tested at progressively lower concentrations.
P-gp-expressing KB 8-5 cells were trypsinized, washed with 15 mL Iscove's modified Dulbecco's medium (IMEM), supplemented with 5% fetal bovine serum (FBS), and resuspended in the same medium. […] After the incubation, the cells were pelleted by centrifugation at 200×g and incubated further in their respective rhodamine-free media (+/−TM peptide) for an additional 45 min at 37° C. in the dark. Cells were then pelleted and resuspended in 400 μL of phosphate-buffered saline without Ca+2 or Mg+2 and immediately analyzed by fluorescence activated cell sorting (FACS).
Incubations of KB 8-5 cells were carried out as described in the previous Example, except that varying concentrations of the analog called TM 6 (see Example 4, supra) were used as the TM polypeptide.

[2] = target: human P-glycoprotein (product of MDR1 gene) (human, UniProt P08183 1-1280); assay: cell-based or functional assay
Chain of human P-glycoprotein (product of MDR1 gene) (P08183 whole entry S893A): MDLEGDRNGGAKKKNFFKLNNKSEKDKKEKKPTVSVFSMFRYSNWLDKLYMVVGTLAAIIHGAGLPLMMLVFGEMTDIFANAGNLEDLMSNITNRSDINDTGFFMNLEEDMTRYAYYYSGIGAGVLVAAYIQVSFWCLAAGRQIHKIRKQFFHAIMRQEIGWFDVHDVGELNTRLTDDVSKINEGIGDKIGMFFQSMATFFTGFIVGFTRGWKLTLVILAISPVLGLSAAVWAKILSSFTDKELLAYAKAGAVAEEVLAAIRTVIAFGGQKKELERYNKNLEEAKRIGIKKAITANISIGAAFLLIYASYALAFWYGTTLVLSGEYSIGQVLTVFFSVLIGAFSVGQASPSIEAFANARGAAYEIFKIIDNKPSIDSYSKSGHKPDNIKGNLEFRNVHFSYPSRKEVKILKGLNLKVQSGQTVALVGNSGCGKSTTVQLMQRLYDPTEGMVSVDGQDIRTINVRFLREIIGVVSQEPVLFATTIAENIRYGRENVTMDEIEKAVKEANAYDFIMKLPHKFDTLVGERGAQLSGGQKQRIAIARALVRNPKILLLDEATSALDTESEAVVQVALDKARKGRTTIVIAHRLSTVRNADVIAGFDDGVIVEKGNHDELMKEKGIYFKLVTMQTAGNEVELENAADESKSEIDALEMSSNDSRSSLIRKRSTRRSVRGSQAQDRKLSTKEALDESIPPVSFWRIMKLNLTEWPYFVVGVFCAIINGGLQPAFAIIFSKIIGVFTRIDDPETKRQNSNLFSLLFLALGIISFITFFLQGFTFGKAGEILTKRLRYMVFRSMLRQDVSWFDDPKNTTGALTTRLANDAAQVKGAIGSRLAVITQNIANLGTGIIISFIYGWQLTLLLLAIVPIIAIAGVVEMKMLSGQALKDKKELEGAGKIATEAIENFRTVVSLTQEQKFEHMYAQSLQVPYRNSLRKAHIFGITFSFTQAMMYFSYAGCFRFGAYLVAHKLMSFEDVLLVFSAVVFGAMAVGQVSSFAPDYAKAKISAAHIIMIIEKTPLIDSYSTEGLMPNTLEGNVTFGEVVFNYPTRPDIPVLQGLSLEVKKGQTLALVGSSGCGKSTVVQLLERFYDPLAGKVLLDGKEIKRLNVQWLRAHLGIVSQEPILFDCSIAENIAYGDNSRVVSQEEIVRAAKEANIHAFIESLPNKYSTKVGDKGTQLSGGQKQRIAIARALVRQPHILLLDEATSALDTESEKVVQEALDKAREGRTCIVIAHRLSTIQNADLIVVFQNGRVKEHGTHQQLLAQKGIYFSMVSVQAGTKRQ

Molecule: COc1cccc2c1C(=O)c1c(O)c3c(c(O)c1C2=O)C[C@@](O)(C(=O)CO)C[C@@H]3O[C@H]1C[C@H](N)[C@H](O)[C@H](C)O1 [adriamycin]
IC50 [1]: 150 ± 10 nM

Molecule: DSGEYSIGQVLTVFFSVLIGAFSV [TM peptide 6]
inhibition of rhodamine efflux (human P-gp; 5 μM TM peptide, KB 8-5 cells, 0.5 μg/mL rhodamine 123, FACS): inhibited rhodamine efflux
activity as inhibitor of the MDR1 ABC transporter (in words) (human P-gp; cells expressing MDR1, efflux of substrates): most active
inhibitory power compared with cyclosporin A (human P-gp; positive control 5 μM cyclosporin A, KB 8-5 cells): not as powerful an inhibitor as cyclosporin A
dose/response inhibition of P-gp (human P-gp; varying concentrations, KB 8-5 cells, rhodamine 123 efflux): inhibited P-gp in a dose dependent manner

activity as inhibitor of the MDR1 ABC transporter (in words) (human P-gp): active
Molecule: ISIGAAFLLIYASYALAFWYGTTDD-OH [TM5 Analog 1]

Molecule: LLIYASYALAFWYGTTLVLSGEGSSG-OH [TM5 analog]
activity as inhibitor of the MDR1 ABC transporter (in words) (human P-gp): strongest inhibitor of the MDR1 ABC transporter yet tested
inhibition of rhodamine 123 efflux compared with 5 micromolar cyclosporin (human P-gp): same degree of inhibition of rhodamine 123 efflux from MDR1 expressing cells as 5 micromolar cyclosporin

B1: TM6 analog of MDR1 (synthetic peptide), Analog 1 (peptide)
peptide: DSGEYSIGQVLTVFFSVLIGAFSV
IC50 of adriamycin (sulforhodamine B toxicity assay, HCT15 cells) in the presence of 1 µM TM6 [2]: 80 nM
